According to patent US10815246B2, “Thailanstatin analogs” (priority 2017, dated 2020):
Where two headings read alike, the source gives them in different places.

Tests used:
Assay type in all cases: cell-based
HCT 116 cells = assay: In vitro cytotoxicity, CellTiter-Glo, 72 h (Example 11)
Description: Alternatively, the in vitro cytotoxicity of the compounds of the invention may be measured as described in this example. 180 μl of HCT 116 cells (ATCC, Cat # CCL-247) in McCoy's 5a Medium Modified (Sigma-Aldrich®, St. Louis, Mo.)+10% fetal bovine serum were seeded at a density of 5,000 cells/well in a white opaque 96-well plate and incubated for 24 hours at […] in a 5% CO2 incubator. Twenty-four hours post cell seeding, 20 μl of 100× test compounds were diluted such that the final concentrations of the test compounds were in μM concentration. Half log dilutions were used, starting from 10 μM through 0.0001 μM. Puromycin and […]. The cells were incubated with the compounds for 72 hours at […] in a 5% CO2 incubator. After 72 hrs, 100 μl/well of CellTiter-Glo® Luminescent Cell Viability Assay reagent (Promega, Inc., Madison, Wis.; Cat. # G7573) was added to the plates and incubated at room temperature for 30 minutes. The luminescence signals were captured using EnVision 2105 Multimode Plate Reader (PerkinElmer, Waltham, Mass.). The data were analyzed using non-linear regression curve fit (sigmoidal dose response) in GraphPad Prism software (GraphPad Software, La Jolla, Calif.) by plotting the concentration of drug on the X-axis and the mean % inhibition values on the Y-axis.

PANC 05.04 = assay: In vitro cytotoxicity on pancreatic cancer cell line (Example 12); details: PANC 05.04 human pancreatic cancer cell line
PANC 10.05 = assay: as above; details: PANC 10.05 human pancreatic cancer cell line
A549 = assay: In vitro cytotoxicity of toxin compounds, CellTiter-Glo, three days (Example 12); details: Homo sapiens, 72 h
Description: (§1) Various cancer cell lines were obtained from the American Type Culture Collection (ATCC®). The cells were cultured in a humidified 5% CO2 incubator in a media consisting of RPMI 1640, L-glutamine, and 10% FBS. The cells were passaged as needed using standard tissue culture techniques. The cells were harvested and plated out into 96-well tissue culture treated plates at a density of 5000 cells per well. After allowing the cells to equilibrate for ˜24 hr in a humidified 5% CO2 incubator, the cells were treated with the test compounds at the indicated concentrations. The cells were exposed to the test compounds for three days with no media change. After the treatment period, CellTiter-Glo® Luminescent Cell Viability Assay reagent solution (Promega, Inc., Madison, Wis.; Cat. # G7573) was introduced to each well. The Cell TiterGlo-containing plates were then read on a SpectroMax® iD3 Multi-Mode Microplate reader (Molecular Devices, LLC, San Jose, Calif.). The degree of luminescence was dictated by the abundance of live cells.
(§2) The following tables summarize the cytotoxicity (IC50), nM, observed for the specified toxin compounds on the indicated cancer cell lines, NCI-H23, DU145, SW480, SKOV3, A549, HT29, SK-MES-1, SKBR3, HCT116, MCF7, N87, and A431 (ATCC designations).

HCT116 = assay: as above; details: Homo sapiens, HCT-116, 72 h
Description: as §1, §2

DU145 = assay: as above; details: Homo sapiens, DU-145, 72 h
Description: as §1, §2

SK-MES-1 = assay: as above; details: Homo sapiens, 72 h; SK-MES-1, three days
Description: as §1, §2

A431 = assay: as above; details: Homo sapiens, A-431, 72 h
Description: as §1, §2

SW480 = assay: as above; details: Homo sapiens, 72 h
Description: as §1, §2

SKOV3 = assay: as above; details: Homo sapiens, SK-OV-3, 72 h
Description: as §1, §2

N87 = assay: as above; details: 72 h
Description: as §1, §2

NCI-H23 = assay: as above; details: Homo sapiens, 72 h
Description: as §1, §2

SKBR3 = assay: as above; details: Homo sapiens, SK-BR-3, 72 h
Description: as §1, §2

HT29 = assay: as above; details: Homo sapiens, HT-29, 72 h
Description: as §1, §2

MCF7 = assay: as above; details: Homo sapiens, 72 h
Description: as §1, §2

SK-MEL-1 = assay: In vitro cytotoxicity of toxin compounds (Example 12, Table 4); details: Homo sapiens
Description: as §1
(§3) Table 4 gives the cytotoxicity data for Compounds 2, 4, and 6 on the indicated cancer cell lines, HL60, KG-1, NCI-H69, SK-MEL-1, HEL-92.1.7, and K562 (ATCC designations).

NCI-H69 = assay: as above; details: Homo sapiens
Description: as §1, §3

HL60 = assay: as above; details: Homo sapiens, HL-60
Description: as §1, §3

K562 = assay: as above; details: Homo sapiens
Description: as §1, §3

HEL-92.1.7 = assay: as above; details: Homo sapiens
Description: as §1, §3

SMILES	IC50 (HCT 116 cells; Homo sapiens, HCT-116, 72 h) [nM]	IC50 (PANC 05.04) [nM]	IC50 (PANC 10.05; Panc1005) [nM]	IC50 (A549) [nM]	IC50 (HCT116) [nM]	IC50 (DU145) [nM]	IC50 (SK-MES-1) [nM]	IC50 (A431) [nM]	IC50 (SW480) [nM]	IC50 (SKOV3) [nM]	IC50 (N87) [nM]	IC50 (NCI-H23) [nM]	IC50 (SKBR3) [nM]	IC50 (HT29) [nM]	IC50 (MCF7) [nM]	IC50 (SK-MEL-1) [nM]	IC50 (NCI-H69) [nM]	IC50 (HL60) [nM]	IC50 (K562) [nM]	further results
COC(=O)C[C@@H]1C[C@@]2(CO2)[C@H](O)[C@@H](/C=C/C(C)=C/C[C@@H]2O[C@H](C)[C@H](NC(=O)/C=C\C(C)OC(=O)c3ccccc3)C[C@@H]2C)O1 (stereo partly drawn) [Compound 1, (Z)-5-((2R, 3R, 5S, 6S)-6-((2E, 4E)-5-((3R, 4R, 5R, 7S)-4-hydroxy-7-(2-methoxy-2-oxoethyl)-1,6-dioxaspiro[2.5]octan-5-yl)-3-methylpenta-2,4-dienyl)-2,5-dimethyltetrahydro-2H-pyran-3-ylamino)-5-oxopent-3-en-2-yl benzoate]	19	22	65	–	–	–	–	–	–	–	–	–	–	–	–	–	–	–	–	–
COC(=O)C[C@@H]1C[C@@]2(CO2)[C@H](O)[C@@H](/C=C/C(C)=C/C[C@@H]2O[C@H](C)[C@H](NC(=O)/C=C\C(C)OC(=O)c3ccc(F)cc3)C[C@@H]2C)O1 (stereo partly drawn) [Compound 2, (Z)-5-((2R, 3R, 5S, 6S)-6-((2E, 4E)-5-((3R, 4R, 5R, 7S)-4-hydroxy-7-(2-methoxy-2-oxoethyl)-1,6-dioxaspiro[2.5]octan-5-yl)-3-methylpenta-2,4-dienyl)-2,5-dimethyltetrahydro-2H-pyran-3-ylamino)-5-oxopent-3-en-2-yl 4-fluorobenzoate]	7	2	21	38.3	8.9	27.5	113	9.1	20.2	57.2	14.9	1.3	166	22.5	32.4	3.26	0.96	0.08	0.58	IC50 (HEL-92.1.7): 0.71 nM
COC(=O)C[C@@H]1C[C@@]2(CO2)[C@H](O)[C@@H](/C=C/C(C)=C/C[C@@H]2O[C@H](C)[C@H](NC(=O)/C=C\C(C)n3nc(C)nc3C)C[C@@H]2C)O1 (stereo partly drawn) [Compound 3, Methyl 2-((3R, 5S, 7R, 8R)-7-((1E, 3E)-5-((2S, 3S, 5R, 6R)-5-((Z)-4-(3,5-dimethyl-1H-1,2,4-triazol-1-yl)pent-2-enamido)-3,6-dimethyltetrahydro-2H-pyran-2-yl)-3-methylpenta-1,3-dienyl)-8-hydroxy-1,6-dioxaspiro[2.5]octan-5-yl)acetate]	390	435	> 2000	–	–	–	–	–	–	–	–	–	–	–	–	–	–	–	–	–
COC(=O)C[C@@H]1C[C@@]2(CO2)[C@H](O)[C@@H](/C=C/C(C)=C/C[C@@H]2O[C@H](C)[C@H](NC(=O)/C=C\C(C)c3ccon3)C[C@@H]2C)O1 (stereo partly drawn) [Compound 4, Methyl 2-((3R, 5S, 7R, 8R)-8-hydroxy-7-((1E, 3E)-5-((2S,3S,5R,6R)-5-((Z)-4-(isoxazol-3-yl)pent-2-enamido)-3,6-dimethyltetrahydro-2H-pyran-2-yl)-3-methylpenta-1,3-dien-1-yl)-1,6-dioxaspiro[2.5]octan-5-yl)acetate]	330	4	7.19	2.8	1	1.9	7.5	0.7	2.2	6.7	1.6	0.2	9.5	1.3	2.1	0.42	0.63	0.05	0.11	–
COC(=O)C[C@@H]1C[C@@]2(CO2)[C@H](O)[C@@H](/C=C/C(C)=C/C[C@@H]2O[C@H](C)[C@H](NC(=O)/C=C\C(C)c3cc(OC)no3)C[C@@H]2C)O1 (stereo partly drawn) [Compound 5, Methyl 2-((3R, 5S, 7R, 8R)-8-hydroxy-7-((1E, 3E)-5-((2S, 3S, 5R, 6R)-5-((Z)-4-(3-methoxyisoxazol-5-yl)pent-2-enamido)-3,6-dimethyltetrahydro-2H-pyran-2-yl)-3-methylpenta-1,3-dienyl)-1,6-dioxaspiro[2.5]octan-5-yl)acetate]	–	12	–	–	–	–	–	–	–	–	–	–	–	–	–	–	–	–	–	IC50 (HCT 116 cells; HCT 116 cells, 72 hours, read-out: IC50): 310 nM; IC50 (PANC 10.05): 19.9 nM
COC(=O)C[C@@H]1C[C@@]2(CO2)[C@H](O)[C@@H](/C=C/C(C)=C/C[C@@H]2O[C@H](C)[C@H](NC(=O)/C=C\C(C)c3noc(C)n3)C[C@@H]2C)O1 (stereo partly drawn) [Compound 6, Methyl 2-((3R, 5S, 7R, 8R)-7-((1E, 3E)-5-((2S, 3S, 5R, 6R)-3,6-dimethyl-5-((Z)-4-(5-methyl-1,2,4-oxadiazol-3-yl)pent-2-enamido)tetrahydro-2H-pyran-2-yl)-3-methylpenta-1,3-dienyl)-8-hydroxy-1,6-dioxaspiro[2.5]octan-5-yl)acetate]	20	7	10.3	4.8	2	3.3	9.3	1.8	2.7	9.7	1.4	0.4	12.3	2.7	3.8	0.78	0.21	0.04	0.09	IC50 (HEL-92.1.7): 0.03 nM
COC(=O)C[C@@H]1C[C@@]2(CO2)[C@H](O)[C@@H](/C=C/C(C)=C/C[C@@H]2O[C@H](C)[C@H](NC(=O)/C=C\C(C)COC3(C)COC3)C[C@@H]2C)O1 (stereo partly drawn) [Compound 7, Methyl 2-((3R, 5S, 7R, 8R)-7-((1E, 3E)-5-((2S, 3S, 5R, 6R)-3,6-dimethyl-5-((Z)-4-methyl-5-((3-methyloxetan-3-yl)oxy)pent-2-enamido)tetrahydro-2H-pyran-2-yl)-3-methylpenta-1,3-dien-1-yl)-8-hydroxy-1,6-dioxaspiro[2.5]octan-5-yl)acetate]	300	22	98.4	–	–	–	–	–	–	–	–	–	–	–	–	–	–	–	–	–
COc1ccc(C[C@H](N)C(=O)N[C@H]2[C@@H](O)[C@H](n3cnc4c(N(C)C)ncnc43)O[C@@H]2CO)cc1 [Puromycin, reference compound]	–	–	–	–	–	–	–	–	–	–	–	–	–	–	–	–	–	–	–	IC50 (HCT 116 cells; Homo sapiens, HCT 116 cells, 72 hours, read-out: IC50): ~250 nM
